Earlier results as cited in patent publication US10300065B2, “Method of treating or prevention of atherothrombotic events in patients with history of myocardial infarction” (ASTRAZENECA AB, priority 2015, dated 2019).

Assays:
[1] = human, in vivo, po; cited from earlier work
[2] = system: patients with acute coronary syndrome; conditions: PLATO, cited from earlier work

| Structure (SMILES) | AUC and cmax of crushed tablets relative to whole tablets (bioequivalence) [1] | serum uric acid level increase from baseline ([2]; clopidogrel) | reports of gout ([2]; each treatment group) [%] |
| --- | --- | --- | --- |
| CCCSc1nc(N[C@@H]2C[C@H]2c2ccc(F)c(F)c2)c2nnn([C@@H]3C[C@H](O)[C@@H](O)[C@H]3O)c2n1 [AR-C124910XX] | 80-125% | – | – |
| COC(=O)[C@H](c1ccccc1Cl)N1CCc2sccc2C1 [clopidogrel] | – | approximately 0.2 mg/dL | 0.6 |
